This note sets out measurements from PubChem BioAssay (NCI).

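Method: 48-hour compound exposure of cells in 96-well plates, five concentrations, linear interpolation of endpoints. TGI is the concentration that stops growth completely.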

Among the test systems are NCI-H226 lung; HT29 colon; HCT-116 colon; SK-MEL-5 melanoma; SK-OV-3 ovarian; OVCAR-8 ovarian; IGROV1 ovarian; MCF7 breast; DU-145 prostate; OVCAR-3 ovarian.
Holding throughout (assay): NCI anticancer screen, dose series, 48 h

Consider `O=C(CCN1CCCCC1CO)Nc1ccc2c(c1)C(=O)c1ccc(NC(=O)CCN3CCCCC3CO)cc1C2=O` (stereo not given), for which the TGI with NCI-H226 lung amounted to 52.5 µM; in the assay on HT29 colon, 31.6 µM; with HCT-116 colon, 19.6 µM; with SK-MEL-5 melanoma it was 29 µM; in the assay with SK-OV-3 ovarian, 46.2 µM; in the assay on OVCAR-8 ovarian, 39.6 µM. This compound also had a TGI in the assay with IGROV1 ovarian of 23.1 µM.

`COC1(OC)N=C(N)C2(C#N)/C(=N/N(C)C)CC(C)C12C#N` (stereo not given): the TGI with NCI-H226 lung, in the assay with HT29 colon, in the assay with MCF7 breast, in the assay with HCT-116 colon, in the assay on DU-145 prostate and with SK-MEL-5 melanoma was greater than 100 µM throughout. The TGI in the assay with SK-OV-3 ovarian, with OVCAR-8 ovarian and with IGROV1 ovarian was greater than 100 µM throughout.

For the compound `COC1(OC)/C(=C(\N)C=O)NC(C)(C)N1O`, the TGI is greater than 100 µM in the assay with NCI-H226 lung; greater than 100 µM in the assay with HT29 colon; greater than 100 µM with MCF7 breast; greater than 100 µM in the assay on HCT-116 colon; greater than 100 µM in the assay on DU-145 prostate; 97.5 µM in the assay with OVCAR-3 ovarian. The TGI in the assay with SK-MEL-5 melanoma, in the assay on OVCAR-8 ovarian and with IGROV1 ovarian was greater than 100 µM each time.

For `COC(=O)CCc1ccc2c(c1)CC1(C2)Cc2ccc(CCC(=O)OC)cc2C1`, the TGI is greater than 100 µM in the assay with NCI-H226 lung; greater than 100 µM in the assay with HT29 colon; greater than 100 µM in the assay with MCF7 breast; greater than 100 µM with HCT-116 colon; greater than 100 µM with OVCAR-3 ovarian; 57.7 µM in the assay on SK-MEL-5 melanoma. Moreover, the TGI in the assay with SK-OV-3 ovarian, in the assay on OVCAR-8 ovarian and in the assay on IGROV1 ovarian was greater than 100 µM throughout.

In the case of `COC1=CC2(C=CC1=O)CCN=c1c(O)c3c(c(O)c12)=NC=N3` (stereo not given), the TGI in the assay on HT29 colon, in the assay with MCF7 breast, in the assay with HCT-116 colon, with DU-145 prostate, with OVCAR-3 ovarian and in the assay on SK-MEL-5 melanoma was greater than 100 µM in each case. The TGI in the assay with SK-OV-3 ovarian, in the assay on OVCAR-8 ovarian and with IGROV1 ovarian was greater than 100 µM in each case.

As to `CSc1s[s+]c(SC)c1-c1ccccc1`, the TGI with HT29 colon is 32.3 µM; with MCF7 breast it was 33.7 µM; in the assay with HCT-116 colon, 29.5 µM; in the assay on DU-145 prostate, greater than 100 µM; with OVCAR-3 ovarian it was 37.6 µM; in the assay on SK-MEL-5 melanoma, 29.3 µM. Further, the TGI in the assay on SK-OV-3 ovarian was 38 µM; in the assay with OVCAR-8 ovarian, 40.3 µM; in the assay with IGROV1 ovarian it was greater than 100 µM.

As to `COc1cc([C@@H]2c3cc4c(cc3[C@@H](Nc3ccc(Cl)cc3C(=O)c3ccccc3Cl)[C@H]3COC(=O)[C@H]23)OCO4)cc(OC)c1OC`, the TGI was greater than 100 µM with HT29 colon; greater than 100 µM with MCF7 breast; greater than 100 µM in the assay on HCT-116 colon; greater than 100 µM in the assay on DU-145 prostate; 6.4 µM in the assay on OVCAR-3 ovarian; greater than 100 µM in the assay with SK-OV-3 ovarian. Further, the TGI in the assay with OVCAR-8 ovarian was greater than 36.2 µM.

For the compound `COc1ccc(-c2c(C(C)=O)c(C)n(C3OC(CO)C(O)C(O)C3O)c(=S)c2C#N)cc1` (stereo not given), the TGI in the assay on HT29 colon, in the assay on MCF7 breast, with HCT-116 colon, in the assay on DU-145 prostate, in the assay on OVCAR-3 ovarian and in the assay on SK-MEL-5 melanoma was greater than 100 µM throughout. Besides, the TGI with SK-OV-3 ovarian, in the assay on OVCAR-8 ovarian and in the assay with IGROV1 ovarian was greater than 100 µM throughout.

Turning to `COc1cccc(N2N=C3c4ccccc4-n4c(nc5ccccc54)C3C2N)c1` (stereo not given), the TGI in the assay with HT29 colon, in the assay with MCF7 breast, with HCT-116 colon, with DU-145 prostate, in the assay on OVCAR-3 ovarian and with SK-MEL-5 melanoma was greater than 100 µM in each case. Also, the TGI in the assay with OVCAR-8 ovarian and with IGROV1 ovarian was greater than 100 µM throughout.

`CC(=O)Nc1ccc(C(=O)N2N=C(C)/C(=C/c3cccc(O)c3)C2=O)cc1`: the TGI in the assay with NCI-H226 lung, in the assay with HT29 colon, in the assay with HCT-116 colon, in the assay on OVCAR-3 ovarian, in the assay with SK-MEL-5 melanoma and with OVCAR-8 ovarian was greater than 100 µM each time.

Regarding `CC(=O)OCC1OC(n2c3c(c(-c4ccco4)c(C#N)c2=S)CCCC3)C(OC(C)=O)C(OC(C)=O)C1OC(C)=O` (stereo not given), the TGI was greater than 31.6 µM with NCI-H226 lung; greater than 31.6 µM with HT29 colon; greater than 100 µM with MCF7 breast; greater than 31.6 µM in the assay on HCT-116 colon; greater than 31.6 µM with DU-145 prostate; greater than 31.6 µM in the assay on OVCAR-3 ovarian. Moreover, the TGI is greater than 31.6 µM in the assay on SK-MEL-5 melanoma, greater than 100 µM in the assay on OVCAR-8 ovarian and greater than 31.6 µM in the assay on IGROV1 ovarian.

In the case of `Cc1c(-c2coc(-c3ccc(Cl)cc3)n2)c(=O)n(-c2ccccc2)n1C`, the TGI in the assay on NCI-H226 lung, with HT29 colon, with HCT-116 colon, in the assay on OVCAR-3 ovarian, with SK-MEL-5 melanoma and with SK-OV-3 ovarian was greater than 100 µM each time. Moreover, the TGI in the assay on OVCAR-8 ovarian and with IGROV1 ovarian was greater than 100 µM throughout.

With `CCN(CC)c1ccc(C(=C2C=CC(=[N+](CC)CC)C=C2)c2ccccc2)cc1`, the TGI was 0.0683 µM in the assay with NCI-H226 lung; 0.127 µM in the assay with HCT-116 colon; 0.041 µM with SK-MEL-5 melanoma; 0.0854 µM in the assay on SK-OV-3 ovarian; 0.247 µM with IGROV1 ovarian.

For `COC(=O)c1ccc(OCc2ccc3nc(-c4ccccc4)c(Cl)nc3c2)cc1`, the TGI in the assay on HT29 colon, in the assay on MCF7 breast, in the assay with HCT-116 colon, in the assay with DU-145 prostate, in the assay with OVCAR-3 ovarian and in the assay with SK-MEL-5 melanoma was greater than 100 µM in each case. The TGI with OVCAR-8 ovarian and in the assay with IGROV1 ovarian was greater than 100 µM throughout.

As for `CCC1(O)CN(CCOC)[C@H]2C[C@@H]1C(=O)c1[nH]c3ccccc3c12` (stereo not given in full), the TGI with NCI-H226 lung, in the assay on HT29 colon, in the assay on MCF7 breast, in the assay with HCT-116 colon, with DU-145 prostate and with OVCAR-3 ovarian was greater than 100 µM throughout. The TGI in the assay with SK-MEL-5 melanoma, in the assay on OVCAR-8 ovarian and in the assay on IGROV1 ovarian was greater than 100 µM each time.

Consider `C=CCOn1c(C=C)nc2c(C)cccc21`, for which the TGI turned out to be 16.9 µM in the assay with NCI-H226 lung; 11.6 µM in the assay with HT29 colon; 12.5 µM with MCF7 breast; 4.97 µM in the assay on HCT-116 colon; 7.51 µM with OVCAR-3 ovarian; 12.7 µM with SK-MEL-5 melanoma. Further, the TGI was 12.5 µM in the assay with SK-OV-3 ovarian, greater than 100 µM with OVCAR-8 ovarian and 22.7 µM with IGROV1 ovarian.
